Data from patent publication US20140057895A1, “INDAZOLE- AND PYRROLOPYRIDINE-DERIVATIVE AND PHARMACEUTICAL USE THEREOF” (priority 2011, published 2014).
pEC50, pIC50: −log10 of the molar value.

Legend:
[1] = target: T1, Human 5-HT4 receptor (5-HT4b) (Homo sapiens, UniProt Q13639); experiment: Test Example 3: Human 5-HT4 receptor binding assay, membranes of CHO-K1 cells stably expressing 5-HT4b receptors (Table 99); conditions: mean value of each group
T1 construct: expressed in transfected cells; membrane preparation
Procedure: To an assay tube were added 0.1 nM [^3H]-GR113808 {chemical name: [1-[2-(methylsulfonylamino) ethyl]-4-piperidinyl]methyl 1-methylindole-3-carboxylate}, receptor membrane preparations, and Hepes buffer (50 mM, pH 7.4, 4° C., 1 ml) containing test compounds or 30 μM serotonin; and the mixture was incubated at 37° C. for 30 minutes. On quenching the reaction, the mixture was rapidly filtered on whatman GF/B filter, which was presoaked in 0.1% polyethyleneimine for 1 hour, by using Brandel cell Harvester, and washed with ice-cooled 50 mM Tris-HCl (pH 7.7, 4 ml) three times. To the filter after filtration was added a liquid scintillator (Ecoscint), and then a radioactivity was determined by a liquid scintillation counter.
50% Inhibition concentrations (IC50) were determined from inhibition rates of test compounds to specific bindings which were obtained by subtracting nonspecific bindings from total binding amounts of [^3H]-GR113808.
Human 5-HT4 receptor membrane preparations were prepared from CHO-K^1 cells which stably express 5-HT4b receptors, and human 5-HT4 receptor binding assay was carried out in a similar manner as in the guinea pig 5-HT4 receptor binding assay. The following tables show results of serotonin 4 (5-HT4) receptor binding assay. In the following tables, the compounds used in the test are shown in numbers which correspond to the Example numbers above where the preparations of the compounds are described.

human 5-HT4b receptor = target: T2, human 5-HT4b receptor (Homo sapiens, UniProt Q13639); experiment: Test Example 4: Serotonin 4 (5-HT4) receptor agonist activity assay, cAMP HTRF in CHO cells (Table 100); format: cell-based; conditions: mean value; for Emax: CHO, 0.25 h, intrinsic activity, maximal activity of 5-HT defined as 100%, read-out: IA (%); for pEC50: concentration showing 50% of IA
T2 construct: expressed in transfected cells; host or cells: CHO cells (G418 selection)
How it was run: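 CHO cells expressing human 5-HT4b receptor, serum-reduced for 1–2 h, were suspended in Hanks/HEPES pH 7.4 and exposed to compound for 15 min at 31° C. cAMP detected by HTRF (cryptate/d2, 1 h RT, 620/665 nm). EC50 and intrinsic activity relative to maximal 5-HT response (10^−11 to 10^−7 M) set at 100%.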

T2 sequence (Q13639 whole entry): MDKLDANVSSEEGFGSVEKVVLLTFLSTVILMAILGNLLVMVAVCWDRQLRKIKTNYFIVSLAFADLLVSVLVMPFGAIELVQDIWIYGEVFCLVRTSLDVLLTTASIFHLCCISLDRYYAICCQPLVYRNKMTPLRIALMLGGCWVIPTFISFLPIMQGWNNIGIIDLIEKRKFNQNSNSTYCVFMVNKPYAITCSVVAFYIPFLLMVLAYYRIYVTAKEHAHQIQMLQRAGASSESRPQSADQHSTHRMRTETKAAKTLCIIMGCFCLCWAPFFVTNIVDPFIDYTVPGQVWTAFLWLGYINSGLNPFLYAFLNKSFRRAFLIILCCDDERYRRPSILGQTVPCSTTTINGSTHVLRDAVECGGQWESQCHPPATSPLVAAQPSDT
T1 sequence (Q13639 whole entry): as above

SMILES	pIC50 [1]	Emax (human 5-HT4b receptor) [%]	pEC50 (human 5-HT4b receptor)
CC(=O)N1CC(CN2CC[C@@H](Cc3nc(-n4nc(C(C)C)c5cccc(F)c54)no3)C2)C1 [Example 513, 1-(3-{[(3S)-3-({3-[7-fluoro-3-(propan-2-yl)-1H-indazol-1-yl]-1,2,4-oxadiazol-5-yl}methyl)pyrrolidin-1-yl]methyl}azetidin-1-yl)ethanone]	> 7.70	81	7.99
CC(=O)NCCCN[C@H]1C[C@@H](c2nc(-n3nc(C(C)C)c4cccc(F)c43)no2)C1 [Example 566]	> 7.70	90	8.51
CC(=O)N1CC[C@@H](CN2CC[C@H](Cc3nc(-n4nc(C(C)C)c5cccc(F)c54)no3)C2)C1 [Example 503, 1-[(3S)-3-{[(3R)-3-({3-[7-fluoro-3-(propan-2-yl)-1H-indazol-1-yl]-1,2,4-oxadiazol-5-yl}methyl)pyrrolidin-1-yl]methyl}pyrrolidin-1-yl]ethanone]	> 7.70	98	8.30
CC(C)c1nn(-c2noc([C@H]3CC[C@@H](NCCC4CN(S(C)(=O)=O)C4)CC3)n2)c2c(F)cccc12 [Example 617, cis-4-{3-[7-fluoro-3-(propan-2-yl)-1H-indazol-1-yl]-1,2,4-oxadiazol-5-yl}-N-{2-[1-(methylsulfonyl)azetidin-3-yl]ethyl}cyclohexanamine]	7.61	104	8.08
CC(C)c1nn(-c2noc(C3CCN([C@H]4[C@@H]5CCC[C@H]4CN(C(=O)CO)C5)CC3)n2)c2c(F)cccc12 [Example 536, 1-[(9-syn)-9-(4-{3-[7-fluoro-3-(propan-2-yl)-1H-indazol-1-yl]-1,2,4-oxadiazol-5-yl}piperidin-1-yl)-3-azabicyclo[3.3.1]non-3-yl]-2-hydroxyethanone]	> 7.70	100	8.43
CC(C)c1nn(-c2noc(C[C@H]3CCN(C[C@H]4CCN(S(C)(=O)=O)C4)C3)n2)c2c(F)cccc12 [Example 506, 7-fluoro-1-(5-{[(3R)-1-{[(3R)-1-(methylsulfonyl)pyrrolidin-3-yl]methyl}pyrrolidin-3-yl]methyl}-1,2,4-oxadiazol-3-yl)-3-(propan-2-yl)-1H-indazole]	> 7.70	46	8.55
CC(C)c1nn(-c2noc(C[C@@H]3CCN(C[C@H]4CCN(S(C)(=O)=O)C4)C3)n2)c2c(F)cccc12 [Example 518, 7-fluoro-1-(5-{[(3S)-1-{[(3R)-1-(methylsulfonyl)pyrrolidin-3-yl]methyl}pyrrolidin-3-yl]methyl}-1,2,4-oxadiazol-3-yl)-3-(propan-2-yl)-1H-indazole]	> 7.70	59	8.26
CC(C)c1nn(-c2noc(C[C@H]3CCN(C[C@@H]4CCN(C(=O)CO)C4)C3)n2)c2c(F)cccc12 [Example 543, 1-[(3S)-3-{[(3R)-3-({3-[7-fluoro-3-(propan-2-yl)-1H-indazol-1-yl]-1,2,4-oxadiazol-5-yl}methyl)pyrrolidin-1-yl]methyl}pyrrolidin-1-yl]-2-hydroxyethanone]	> 7.70	92	8.43
CC(C)c1nn(-c2noc(C[C@H]3CCN(CC4CN(S(C)(=O)=O)C4)C3)n2)c2c(F)cccc12 [Example 502, 7-fluoro-1-(5-{[(3R)-1-{[1-(methylsulfonyl)azetidin-3-yl]methyl}pyrrolidin-3-yl]methyl}-1,2,4-oxadiazol-3-yl)-3-(propan-2-yl)-1H-indazole]	> 7.70	70	8.46
COCCN(C1CCOCC1)[C@H]1C[C@@H](c2nc(-n3nc(C(C)C)c4cccc(F)c43)no2)C1 [Example 614, N-(cis-3-{3-[7-fluoro-3-(propan-2-yl)-1H-indazol-1-yl]-1,2,4-oxadiazol-5-yl}cyclobutyl)-N-(2-methoxyethyl)tetrahydro-2H-pyran-4-amine]	> 7.70	93	7.96
CC(C)c1nn(-c2noc(C[C@@H]3CCN(CC4CN(C(=O)CO)C4)C3)n2)c2c(F)cccc12 [Example 548, 1-(3-{[(3S)-3-({3-[7-fluoro-3-(propan-2-yl)-1H-indazol-1-yl]-1,2,4-oxadiazol-5-yl}methyl)pyrrolidin-1-yl]methyl}azetidin-1-yl)-2-hydroxyethanone]	> 7.70	73	8.19
CC(=O)N1CCC(N2C3CCC2CC(c2nc(-n4nc(C(C)C)c5cccc(F)c54)no2)C3)CC1 (stereo not drawn) [Example 419, 1-{4-[3-{3-[7-fluoro-3-(propan-2-yl)-1H-indazol-1-yl]-1,2,4-oxadiazol-5-yl}-8-azabicyclo[3.2.1]oct-8-yl]piperidin-1-yl}ethanone]	7.20	110	7.98
CC(C)c1nn(-c2noc(C3CCN(C4(C)CCN(S(C)(=O)=O)CC4)CC3)n2)c2c(F)cccc12 [Example 488, 4-{3-[7-fluoro-3-(propan-2-yl)-1H-indazol-1-yl]-1,2,4-oxadiazol-5-yl}-4′-methyl-1′-(methylsulfonyl)-1,4′-bipiperidine]	> 7.70	106	8.54
CC(C)c1nn(-c2noc([C@H]3CC[C@@H](NC4CCN(S(C)(=O)=O)C4)CC3)n2)c2c(F)cccc12 (relative stereo) [Example 616, N-(cis-4-{3-[7-fluoro-3-(propan-2-yl)-1H-indazol-1-yl]-1,2,4-oxadiazol-5-yl}cyclohexyl)-1-(methylsulfonyl)pyrrolidin-3-amine]	> 7.70	105	7.89
CC(=O)N1CC[C@H](CN2CC[C@H](Cc3nc(-n4nc(C(C)C)c5cccc(F)c54)no3)C2)C1 [Example 505, 1-[(3R)-3-{[(3R)-3-({3-(7-fluoro-3-(propan-2-yl)-1H-indazol-1-yl]-1,2,4-oxadiazol-5-yl}methyl)pyrrolidin-1-yl]methyl}pyrrolidin-1-yl]ethanone]	> 7.70	52	8.26

Now from value to molecule:

pIC50 [1]	Emax (human 5-HT4b receptor) [%]	pEC50 (human 5-HT4b receptor)	SMILES
> 7.70	84	8.37	CCCc1nn(-c2noc(C3CCN(C4CCN(C(=O)CO)CC4)CC3)n2)c2c(F)cccc12 [Example 524, 1-{4-[3-(7-fluoro-3-propyl-1H-indazol-1-yl)-1,2,4-oxadiazol-5-yl]-1,4′-bipiperidin-1′-yl}-2-hydroxyethanone]
7.45	79	8.05	CC(C)c1nn(-c2noc(C[C@H]3CCN(C[C@H]4CCCN4C(=O)CO)C3)n2)c2c(F)cccc12 [Example 541, 1-[(2R)-2-{[(3R)-3-({3-[7-fluoro-3-(propan-2-yl)-1H-indazol-1-yl]-1,2,4-oxadiazol-5-yl}methyl)pyrrolidin-1-yl]methyl}pyrrolidin-1-yl]-2-hydroxyethanone]
> 7.70	54	7.85	CC(C)c1nn(-c2noc(C[C@@H]3CCN(C[C@H]4CCCN4C(=O)CO)C3)n2)c2c(F)cccc12 [Example 547, 1-[(2R)-2-{[(3S)-3-({3-[7-fluoro-3-(propan-2-yl)-1H-indazol-1-yl]-1,2,4-oxadiazol-5-yl}methyl)pyrrolidin-1-yl]methyl}pyrrolidin-1-yl]-2-hydroxyethanone]
> 7.70	90	7.84	CC(C)c1nn(-c2noc(C[C@H]3CCN(C[C@H]4CCCN4S(C)(=O)=O)C3)n2)c2c(F)cccc12 [Example 500, 7-fluoro-1-(5-{[(3R)-1-{[(2R)-1-(methylsulfonyl)pyrrolidin-2-yl]methyl}pyrrolidin-3-yl]methyl}-1,2,4-oxadiazol-3-yl)-3-(propan-2-yl)-1H-indazole]
> 7.70	63	7.70	CC(C)c1nn(-c2noc(C[C@@H]3CCN(C[C@@H]4CCCN4C(=O)CO)C3)n2)c2c(F)cccc12 [Example 546, 1-[(2S)-2-{[(3S)-3-({3-[7-fluoro-3-(propan-2-yl)-1H-indazol-1-yl]-1,2,4-oxadiazol-5-yl}methyl)pyrrolidin-1-yl]methyl}pyrrolidin-1-yl]-2-hydroxyethanone]
> 7.70	111	8.89	CC(C)c1nn(-c2noc(C3CCN(C4(C)CCN(C(=O)CO)CC4)CC3)n2)c2c(F)cccc12 [Example 537, 1-(4-{3-[7-fluoro-3-(propan-2-yl)-1H-indazol-1-yl]-1,2,4-oxadiazol-5-yl}-4′-methyl-1,4′-bipiperidin-1′-yl)-2-hydroxyethanone]
> 7.70	58	8.33	CC(C)c1nn(-c2noc(C[C@H]3CCN(C[C@H]4CCN(C(=O)CO)C4)C3)n2)c2c(F)cccc12 [Example 544, 1-[(3R)-3-{[(3R)-3-({3-[7-fluoro-3-(propan-2-yl)-1H-indazol-1-yl]-1,2,4-oxadiazol-5-yl}methyl)pyrrolidin-1-yl]methyl}pyrrolidin-1-yl]-2-hydroxyethanone]
